Experimental data published in PubChem BioAssay AID330 (DTP/NCI, 2004).
Several values for one entry are separate records, joined by “and”; a condition that tells them apart may be missing. Equal values may be shown once. Inconclusive results and toxic doses are left out.

Tested on: P388 leukemia ip, CD2F1 mice, survival T/C
Assay: NCI In Vivo Anticancer Drug Screen. Data for tumor model P388 Leukemia (intraperitoneal) in CD2F1 (CDF1) mice
Settings: endpoint: median survival time, higher = longer survival
How it was run: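 Mice carrying the transplanted tumor received test compound or vehicle. Survival was recorded in each group, and the value is the treated-group measurement divided by that of the vehicle-treated control group.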

[1] = dose: 50.0 mg/kg/injection, schedule: Q01DX005 (ip), vehicle: saline with Tween-80
[2] = dose: 100.0 mg/kg/injection, schedule: Q01DX005 (ip), vehicle: saline with Tween-80
[3] = dose: 25.0 mg/kg/injection, schedule: Q01DX005 (ip), vehicle: Klucel (hydroxypropylcellulose) (HPC)
[4] = dose: 50.0 mg/kg/injection, schedule: Q01DX005 (ip), vehicle: Klucel (hydroxypropylcellulose) (HPC)
[5] = dose: 50.0 mg/kg/injection, schedule: Q01DX009 (ip), vehicle: Klucel (hydroxypropylcellulose) (HPC)
[6] = dose: 100.0 mg/kg/injection, schedule: Q01DX009 (ip), vehicle: Klucel (hydroxypropylcellulose) (HPC)
[7] = dose: 200.0 mg/kg/injection, schedule: Q01DX009 (ip), vehicle: Klucel (hydroxypropylcellulose) (HPC)

For `CC(C)NC(=O)c1ccc(N/N=[N+](/C)[O-])cc1`, the T/C (dose: 6.25 mg/kg/injection, schedule: Q01DX005 (ip), vehicle: saline with Tween-80) was 97 % of control, the T/C (dose: 12.5 mg/kg/injection, schedule: Q01DX005 (ip), vehicle: saline with Tween-80) was 99 % of control and the T/C (dose: 25.0 mg/kg/injection, schedule: Q01DX005 (ip), vehicle: saline with Tween-80) was 98 % of control. For the same compound, the T/C [1] was 92 % of control and the T/C [2] was 102 % of control.

`CSc1nccc(=O)n1-c1ccccc1Cl` was tested, and the T/C (dose: 100.0 mg/kg/injection, schedule: Q04DX003 (ip), vehicle: saline with Tween-80) was 109 % of control and the T/C (dose: 200.0 mg/kg/injection, schedule: Q04DX003 (ip), vehicle: saline with Tween-80) was 114 % of control.

`CN1c2ccccc2N=Cc2c1oc1ccc3ccccc3c1c2=O` was tested, and the T/C (dose: 12.5 mg/kg/injection, schedule: Q01DX005 (ip), vehicle: Klucel (hydroxypropylcellulose) (HPC)) was 96 % of control, the T/C [3] was 103 % of control and the T/C [4] was 92 % of control.

For `Cc1cc(C2(c3cc(C)c(O)c(C)c3)OC(=O)c3ccccc32)cc(C)c1O`, the T/C [5] was 105 % of control, the T/C [6] was 99 % of control and the T/C [7] was 103 % of control.

In the case of `C/C=C(\C)C(=O)N/N=C\c1ccc(O)cc1O`, the T/C (dose: 50.0 mg/kg/injection, schedule: Q01DX009 (ip), vehicle: saline with Tween-80) was 104 % of control, the T/C (dose: 100.0 mg/kg/injection, schedule: Q01DX009 (ip), vehicle: saline with Tween-80) was 96 % of control and the T/C (dose: 200.0 mg/kg/injection, schedule: Q01DX009 (ip), vehicle: saline with Tween-80) was 91 % of control.

In the case of `COc1ccc2c3c([nH]c2c1)C1CC2C(CC(O)C(OC)C2C(=O)O)CN1CC3` (stereo not drawn), the T/C (dose: 60.0 mg/kg/injection, schedule: Q01DX005 (ip), vehicle: Klucel (hydroxypropylcellulose) (HPC)) was 100 % of control, the T/C (dose: 120.0 mg/kg/injection, schedule: Q01DX005 (ip), vehicle: Klucel (hydroxypropylcellulose) (HPC)) was 100 % of control and the T/C (dose: 240.0 mg/kg/injection, schedule: Q01DX005 (ip), vehicle: Klucel (hydroxypropylcellulose) (HPC)) was 106 % of control.

`CC(=O)Nc1ccc2c3c(cccc13)CC2` was tested, and the T/C [5] was 101 % of control, the T/C [6] was 106 % of control and the T/C [7] was 108 % of control.

For `CNc1ccc(N=Nc2ccncc2C)cc1C`, the T/C (dose: 6.25 mg/kg/injection, schedule: Q01DX009 (ip), vehicle: DMSO) was 89 % of control, the T/C (dose: 12.5 mg/kg/injection, schedule: Q01DX009 (ip), vehicle: DMSO) was 88 % of control and the T/C (dose: 25.0 mg/kg/injection, schedule: Q01DX009 (ip), vehicle: DMSO) was 87 % of control.

For `CN(C)c1ccc(C2Sc3ccccc3S2)cc1`, the T/C (dose: 100.0 mg/kg/injection, schedule: Q01DX001 (ip), vehicle: Klucel (hydroxypropylcellulose) (HPC)) was 97 % of control, the T/C (dose: 200.0 mg/kg/injection, schedule: Q01DX001 (ip), vehicle: Klucel (hydroxypropylcellulose) (HPC)) was 95 % of control and the T/C (dose: 400.0 mg/kg/injection, schedule: Q01DX001 (ip), vehicle: Klucel (hydroxypropylcellulose) (HPC)) was 97 % of control.

In the case of `O=C1Oc2ccccc2CC1C(=O)c1ccc(Cl)cc1` (stereo not drawn), the T/C [1] was 106 % of control, the T/C [2] was 103 % of control and the T/C (dose: 200.0 mg/kg/injection, schedule: Q01DX005 (ip), vehicle: saline with Tween-80) was 100 % of control.

For `Cc1ccc(NC(=S)SCc2ccccc2)cc1Cl`, the T/C (dose: 100.0 mg/kg/injection, schedule: Q04DX002 (ip), vehicle: saline) was 98 % of control, the T/C (dose: 200.0 mg/kg/injection, schedule: Q04DX002 (ip), vehicle: saline) was 100 % of control and the T/C (dose: 400.0 mg/kg/injection, schedule: Q04DX002 (ip), vehicle: saline) was 106 % of control.

For `C=C1CC(NCC(=O)OCC)=C(O)C1=O`, the T/C [3] was 93 % of control, the T/C [4] was 90 % of control and the T/C (dose: 100.0 mg/kg/injection, schedule: Q01DX005 (ip), vehicle: Klucel (hydroxypropylcellulose) (HPC)) was 94 % of control.

With `Nc1ccn(C2CC(N)C(CO)O2)c(=O)n1` (stereo not drawn) the T/C (dose: 12.5 mg/kg/injection, schedule: Q01DX005 (ip), vehicle: water) was 120 % of control, the T/C (dose: 25.0 mg/kg/injection, schedule: Q01DX005 (ip), vehicle: water) was 118 % of control and 123 % of control and the T/C (dose: 200.0 mg/kg/injection, schedule: Q01DX005 (ip), vehicle: water) was 153 % of control and 154 % of control.

In the case of `CN1CCCCC1CCN1c2ccccc2Sc2ccc(S(C)=O)cc21` (stereo not drawn), the T/C (dose: 12.5 mg/kg/injection, schedule: Q01DX005 (ip), vehicle: saline) was 100 % of control and 102 % of control and 105 % of control, the T/C (dose: 25.0 mg/kg/injection, schedule: Q01DX005 (ip), vehicle: saline) was 100 % of control and 105 % of control and 114 % of control and the T/C (dose: 100.0 mg/kg/injection, schedule: Q01DX005 (ip), vehicle: saline) was 102 % of control and 103 % of control.
